Experiments:
LSD1 = settings: cited from earlier work
human recombinant LSD1 = human recombinant LSD1 (Homo sapiens, UniProt O60341); assay: Labeling of human recombinant LSD1 after pre-treatment with LSD1 inhibitors; type: biochemical

effect of inhibitor pre-treatment on LSD1 labeling by probe 17 (human recombinant LSD1; compound 12 1 mM or TCP 1.5 mM, 30 min pre-incubation, probe 17 40 µM, 2 min UV) | effect of inhibitor pre-treatment on LSD1 labeling by probe 18 (human recombinant LSD1; compound 12 pre-incubation 30 min, probe 18 10 µM, 2 min) | SMILES | reported potency over LSD1 (LSD1) [µM]
 |  | N[C@@H]1C[C@H]1c1ccccc1 (relative stereo) [TCP, trans-2-phenylcyclopropyl-1-amine] | 20 to 400
no reduction in protein labeling | no clear difference | C=Cc1ccc(C(=O)Nc2ccc([C@@H]3C[C@H]3N)cc2)cc1.Cl (relative stereo) [compound 12, N-(4-(trans-2-aminocyclopropyl)phenyl)-4-vinyl benzamide hydrochloride] | 

Source: publication PMC5292237 (Bioorganic & medicinal chemistry, 2016)
